The experiment addresses human PDE10A2 (Homo sapiens (Human), UniProt Q9Y233). The experiment is described as follows: PDE10 fluorescence polarization (IMAP FP) inhibition assay. The settings on record: FAM-labeled cAMP 50 nM, room temperature, read-out: PDE10a Ki. The format is biochemical. The essentials:
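Cytoplasmic lysate of AD293 cells transiently expressing human PDE10A2, incubated 30 minutes at room temperature with 50 nM FAM-labeled cAMP in Tris pH 7.2 with MgCl2. Read by IMAP fluorescence polarization; 0% inhibition set by 1% DMSO, 100% by a reference PDE10 inhibitor.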
Background: Polarisation of emitted light reports the rotation of a fluorescent probe.

human PDE10A2, sequence (Q9Y233 267-1055): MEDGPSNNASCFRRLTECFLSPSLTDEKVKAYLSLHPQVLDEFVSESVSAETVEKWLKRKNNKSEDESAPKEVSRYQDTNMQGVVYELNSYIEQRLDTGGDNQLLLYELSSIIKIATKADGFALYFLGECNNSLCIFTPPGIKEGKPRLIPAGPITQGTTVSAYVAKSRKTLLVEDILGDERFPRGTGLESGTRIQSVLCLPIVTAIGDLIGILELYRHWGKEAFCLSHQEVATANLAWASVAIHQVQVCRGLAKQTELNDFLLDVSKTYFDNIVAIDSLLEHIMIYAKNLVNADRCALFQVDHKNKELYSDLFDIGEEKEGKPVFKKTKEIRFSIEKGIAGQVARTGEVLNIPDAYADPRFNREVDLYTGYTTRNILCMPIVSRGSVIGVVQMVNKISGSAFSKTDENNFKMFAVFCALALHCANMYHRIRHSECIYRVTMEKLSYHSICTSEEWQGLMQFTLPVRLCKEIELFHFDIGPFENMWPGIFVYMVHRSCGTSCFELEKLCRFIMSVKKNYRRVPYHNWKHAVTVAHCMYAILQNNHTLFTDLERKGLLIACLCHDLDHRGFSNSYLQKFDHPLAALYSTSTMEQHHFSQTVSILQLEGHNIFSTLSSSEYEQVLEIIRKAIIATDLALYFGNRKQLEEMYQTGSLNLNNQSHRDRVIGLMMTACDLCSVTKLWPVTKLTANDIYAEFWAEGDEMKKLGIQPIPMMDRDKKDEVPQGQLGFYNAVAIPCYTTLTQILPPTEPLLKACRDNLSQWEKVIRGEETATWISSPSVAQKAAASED

Regarding `CSc1nc([C@@H]2C[C@H]2c2nc3ccccc3n2C)cc(-n2nc(C)nc2C)n1` [Cpd 69, 2-{(1R,2R)-2-[6-(3,5-dimethyl-1H-1,2,4-triazol-1-yl)-2-(methylsulfanyl)pyrimidin-4-yl]cyclopropyl}-1-methyl-1H-benzimidazole], the Ki is 0.37 nM.
With `COc1ccc(Cc2nc(C)nn2-c2cc(C#Cc3ccc4ncccc4n3)nc(C)n2)cc1OC` [Cpd 14, 2-((6-(5-(3,4-dimethoxybenzyl)-3-methyl-1H-1,2,4-triazol-1-yl)-2-methylpyrimidin-4-yl)ethynyl)-1,5-naphthyridine], the Ki stood at 0.82 nM.
For `Cc1nc(C)n(-c2cc([C@@H]3C[C@H]3c3nc4ccccc4n3C)nc(N3CC(F)(F)C3)n2)n1` [Cpd 132, 2-((1R,2R)-2-(2-(3,3-difluoroazetidin-1-yl)-6-(3,5-dimethyl-1H-1,2,4-triazol-1-yl)pyrimidin-4-yl)cyclopropyl)-1-methyl-1H-benzo[d]imidazole] the value was 0.75 nM.
For `Cc1nc([C@H]2C[C@@H]2c2nc3ccccc3s2)cc(-n2nc(C)nc2C)n1` (relative stereo) [Cpd 129, trans-2-{2-[6-(3,5-dimethyl-1H-1,2,4-triazol-1-yl)-2-methylpyrimidin-4-yl]cyclopropyl}-1,3-benzothiazole] the value was 43 nM; for `Cc1nc([C@H]2C[C@@H]2c2nc3ccccc3n2CCF)cc(-n2nc(C)nc2C)n1` [Cpd 103, 2-{(1S,2S)-2-[6-(3,5-dimethyl-1H-1,2,4-triazol-1-yl)-2-methylpyrimidin-4-yl]cyclopropyl}-1-(2-fluoroethyl)-1H-benzimidazole], 2.9 nM; for `Cc1nc(C)n(-c2cc([C@@H]3C[C@H]3c3nc4ccccc4n3C)nc(OCC3CCO3)n2)n1` (stereo partly drawn) [Cpd 138, 2-((1R,2R)-2-(6-(3,5-dimethyl-1H-1,2,4-triazol-1-yl)-2-(oxetan-2-ylmethoxy)pyrimidin-4-yl)cyclopropyl)-1-methyl-1H-benzo[d]imidazole], 1.3 nM.
For `Cc1nc([C@@H]2C[C@H]2c2nc3ccccc3n2C)cc(-n2nc(C)nc2[C@@H]2CCCO2)n1` [Cpd 101, 1-methyl-2-[(1R,2R)-2-(2-methyl-6-{3-methyl-5-[(2S)-tetrahydrofuran-2-yl]-1H-1,2,4-triazol-1-yl}pyrimidin-4-yl)cyclopropyl]-1H-benzimidazole] the value was 5.8 nM.
Regarding `Cc1nc([C@@H]2C[C@H]2c2nc3ccccc3n2CCN(C)C)cc(-n2nc(C)nc2C)n1` (stereo in doubt) [Cpd 72, 2-(2-{2-[6-(3,5-dimethyl-1H-1,2,4-triazol-1-yl)-2-methylpyrimidin-4-yl]cyclopropyl}-1H-benzimidazol-1-yl)-N,N-dimethylethanamine], the Ki came to 14.2 nM.
For `Cc1nc(C)n(-c2cc([C@H]3C[C@@H]3c3nc4ccccc4n3C)nc(C3CC3)n2)n1` (relative stereo) [Cpd 112, trans-2-{2-[2-cyclopropyl-6-(3,5-dimethyl-1H-1,2,4-triazol-1-yl)pyrimidin-4-yl]cyclopropyl}-1-methyl-1H-benzimidazole] the value was 0.68 nM.
With `Cc1nc(C)n(-c2cc([C@@H]3C[C@H]3c3nc4ccccc4n3C)nc(N3CC(C)(O)C3)n2)n1` [Cpd 135, 1-(4-(3,5-dimethyl-1H-1,2,4-triazol-1-yl)-6-((1R,2R)-2-(1-methyl-1H-benzo[d]imidazol-2-yl)cyclopropyl)pyrimidin-2-yl)-3-methylazetidin-3-ol], the Ki came to 1.1 nM.
As to `Cc1nc([C@H]2C[C@@H]2c2nc3ccccc3[nH]2)cc(-n2nc(C)nc2C)n1` [Cpd 90, 2-{(1S,2S)-2-[6-(3,5-dimethyl-1H-1,2,4-triazol-1-yl)-2-methylpyrimidin-4-yl]cyclopropyl}-1H-benzimidazole], the Ki was determined as 38 nM.
Turning to `Cc1nc(C)n(-c2cc([C@@H]3C[C@H]3c3nc4ccccc4n3C)nc(C(C)(C)O)n2)n1` [Cpd 131, 2-(4-(3,5-dimethyl-1H-1,2,4-triazol-1-yl)-6-((1R,2R)-2-(1-methyl-1H-benzo[d]imidazol-2-yl)cyclopropyl)pyrimidin-2-yl)propan-2-ol], the Ki came out at 0.88 nM.
In the case of `COCCOc1nc([C@@H]2C[C@H]2c2nc3ccccc3n2C)cc(-n2nc(C)nc2C)n1` [Cpd 65, 2-{(1R,2R)-2-[6-(3,5-dimethyl-1H-1,2,4-triazol-1-yl)-2-(2-methoxyethoxy)pyrimidin-4-yl]cyclopropyl}-1-methyl-1H-benzimidazole], the Ki was 1.08 nM.
Turning to `Cc1nc(C)n(-c2cc([C@@H]3C[C@H]3c3nc4ccccc4n3C)nc(N3CC[C@@H](F)C3)n2)n1` [Cpd 134, 2-((1R,2R)-2-(6-(3,5-dimethyl-1H-1,2,4-triazol-1-yl)-2-((R)-3-fluoropyrrolidin-1-yl)pyrimidin-4-yl)cyclopropyl)-1-methyl-1H-benzo[d]imidazole], the Ki came out at 0.58 nM.
For `CCc1nc(C)nn1-c1cc([C@@H]2C[C@H]2c2nc3ccccc3n2C)nc(C)n1` [Cpd 92, 2-{(1R,2R)-2-[6-(5-ethyl-3-methyl-1H-1,2,4-triazol-1-yl)-2-methylpyrimidin-4-yl]cyclopropyl}-1-methyl-1H-benzimidazole] the value was 0.4 nM; for `COc1ccc(Cc2nc(C)nn2-c2cc(C3CC3c3ccc(C)cn3)nc(C)n2)cc1OC` (stereo not shown) [Cpd 35, 4-(5-(3,4-dimethoxybenzyl)-3-methyl-1H-1,2,4-triazol-1-yl)-2-methyl-6-(2-(5-methylpyridin-2-yl)cyclopropyl)pyrimidine], 0.21 nM.
For the molecule `Cc1nc([C@@H]2C[C@H]2c2nc3ccccc3n2C)cc(-n2cnc(C)n2)n1` [Cpd 77, 1-methyl-2-{(1R,2R)-2-[2-methyl-6-(3-methyl-1H-1,2,4-triazol-1-yl)pyrimidin-4-yl]cyclopropyl}-1H-benzimidazole], the Ki worked out at 9 nM.
For `CO[C@@H](C)c1nc(C)nn1-c1cc([C@@H]2C[C@H]2c2nc3ccccc3n2C)nc(C)n1` [Cpd 95, 2-[(1R,2R)-2-(6-{5-[(1S)-1-methoxyethyl]-3-methyl-1H-1,2,4-triazol-1-yl}-2-methylpyrimidin-4-yl)cyclopropyl]-1-methyl-1H-benzimidazole] the value was 2.1 nM; for `Cc1nc(C)n(-c2cc([C@H]3C[C@@H]3c3nc4ccccc4n3C)nc(OCC3CC3)n2)n1` (relative stereo) [Cpd 120, trans-2-{2-[2-(cyclopropylmethoxy)-6-(3,5-dimethyl-1H-1,2,4-triazol-1-yl)pyrimidin-4-yl]cyclopropyl}-1-methyl-1H-benzimidazole], 1.1 nM.
For `Cc1nc([C@H]2C[C@@H]2c2nc3ccccc3n2C)cc(-n2nc(C)nc2CN(C)C)n1` (stereo in doubt) [Cpd 87, N,N-dimethyl-1-(3-methyl-1-{2-methyl-6-[2-(1-methyl-1H-benzimidazol-2-yl)cyclopropyl]pyrimidin-4-yl}-1H-1,2,4-triazol-5-yl)methanamine] the value was 10.6 nM; for `COc1ccc(Cc2nc(C)nn2-c2cc(C#Cc3ccc4ccccc4n3)nc(C)n2)cc1OC` [Cpd 2, 2-((6-(5-(3,4-dimethoxybenzyl)-3-methyl-1H-1,2,4-triazol-1-yl)-2-methylpyrimidin-4-yl)ethynyl)quinoline], 0.023 nM.
For `COc1ccc(Cc2nc(C)nn2-c2cc(/C=C/c3ccccn3)nc(C)n2)cc1OC` [Cpd 19, (E)-4-(5-(3,4-dimethoxybenzyl)-3-methyl-1H-1,2,4-triazol-1-yl)-2-methyl-6-(2-(pyridin-2-yl)vinyl)pyrimidine] the value was 0.002 nM.

In general, Ki refers to the equilibrium dissociation constant of an inhibitor or competing ligand from its target.

(Values after patent US9200001B2, “Triazolyl PDE10 inhibitors” (Merck Sharp & Dohme Corp., priority 2011, dated 2015).)
